Data as given in patent US9695155B2, “Herbicidal substituted pyrimidinyloxy benzene compounds” (E. I. DU PONT DE NEMOURS AND COMPANY, priority 2013, dated 2017).

What was measured:
soybean = experiment: Test C postemergence; assay type: in vivo, Glycine max; details: for Plant response rating (0 to 100), Soybean: postemergence; for Plant response rating, Soybean: Postemergence, scale 0 to 100 (0 no effect, 100 complete control)
In short: (§1)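 Injury was assessed visually against controls 13 to 15 days after application, with 0 meaning no effect and 100 full control; missing entries are shown as a dash. Preemergence sprays hit seeded loam–sand soil, postemergence sprays hit 1- to 4-leaf plants.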

blackgrass = experiment: Test C postemergence; assay type: in vivo, Alopecurus myosuroides; details: for Plant response rating, Blackgrass: Postemergence
In short: as §1

wheat = experiment: Test A postemergence; assay type: in vivo, Triticum aestivum
In short: (§2)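 Visual 0–100 rating (100 = complete control) taken about 10 d post-treatment relative to untreated checks. Preemergence: directed soil spray on sown loam/sand pots. Postemergence: seedlings 2–10 cm, 1–2 leaf. Non-phytotoxic solvent formulation with surfactant.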

oilseed rape = experiment: Test C postemergence; assay type: in vivo, Brassica napus; details: for Plant response rating (0 to 100), Oilseed Rape: postemergence; for Plant response rating, Oilseed Rape: Postemergence, scale 0 to 100 (0 no effect, 100 complete control)
Text: Seeds of plant species selected from blackgrass (Alopecurus myosuroides), Italian ryegrass (Lolium multiflorum), wheat, winter (winter wheat, Triticum aestivum), galium (catchweed bedstraw, Galium aparine), corn (Zea mays), large (Lg) crabgrass (Digitaria sanguinalis), giant foxtail (Setaria faberii), johnsongrass (Sorghum halepense), lambsquarters (Chenopodium album), morningglory (Ipomoea coccinea), yellow nutsedge (Cyperus esculentus), pigweed (Amaranthus retroflexus), ragweed (common ragweed, Ambrosia elatior), soybean (Glycine max), barnyardgrass (Echinochloa crus-galli), oilseed rape (Brassica napus), waterhemp (common waterhemp, Amaranthus rudis), kochia (Kochia scoparia), wild oat (Avena fatua), surinam grass (Brachiaria decumbens), foxtail, green (green foxtail, Setaria viridis), goosegrass (Eleusine indica), bromegrass, downy (downy bromegrass, Bromus tectorum), nightshade (eastern black nightshade, Solanum ptycanthum), cocklebur (common cocklebur, Xanthium strumarium), cupgrass, woolly (woolly cupgrass, Eriochloa villosa), bermudagrass (Cynodon dactylon), sunflower, (common oilseed sunflower, Helianthus annuus), Russian thistle (Salsola kali), and velvetleaf (Abutilon theophrasti) were planted into a blend of loam soil and sand and treated preemergence with test chemicals formulated in a non-phytotoxic solvent mixture which included a surfactant.
At the same time, plants selected from these crop and weed species and also barley, winter (winter barley, Hordeum vulgare), windgrass (Apera spica-venti), chickweed (common chickweed, Stellaria media), deadnettle (henbit deadnettle, Lamium amplexicaule), and canarygrass (littleseed canarygrass, Phalaris minor) were planted in pots containing Redi-Earth® planting medium (Scotts Company, 14111 Scottslawn Road, Marysville, Ohio 43041) comprising spaghnum peat moss, vermiculite, wetting agent and starter nutrients and treated with postemergence applications of test chemicals formulated in the same manner. Plants ranged in height from 2 to 18 cm (1- to 4-leaf stage) for postemergence treatments. Treated plants and controls were maintained in a greenhouse for 13 to 15 days, after which time all species were compared to controls and visually evaluated. Plant response ratings, summarized in Table C, are based on a scale of 0 to 100 where 0 is no effect and 100 is complete control. A dash (-) response means no test result.

rice = experiment: Test B flooded paddy test; assay type: in vivo, Oryza sativa; details: Flood, 250 g ai/ha; 0 to 100 scale where 0 is no effect and 100 is complete control
In short: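 Scores from 0 (no effect) to 100 (complete control) are visual comparisons with controls, taken 13 to 15 days after compound was applied into floodwater 3 cm deep around 2-leaf plants.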

ragweed = experiment: Test C postemergence; assay type: in vivo, Ambrosia elatior; details: for Plant response rating (0 to 100), Ragweed: postemergence; for Plant response rating, Ragweed: Postemergence, scale 0 to 100 (0 no effect, 100 complete control)
In short: as §1

giant foxtail = experiment: Test C postemergence; assay type: in vivo, Setaria faberii; details: for Plant response rating, Foxtail, Giant: Postemergence
In short: as §1

barnyardgrass = experiment: Test A preemergence; assay type: in vivo, Echinochloa crus-galli; details: for Barnyardgrass plant response rating: 500 g ai/ha, approx. 10 days
In short: as §2

morningglory = experiment: Test A postemergence; assay type: in vivo, Ipomoea spp.
In short: as §2

[1] = 31 g ai/ha, scale 0 to 100 (0 no effect, 100 complete control), 13 to 15 days
[2] = 62 g ai/ha, scale 0 to 100 (0 no effect, 100 complete control)
[3] = 125 g ai/ha, 0 to 100 scale where 0 is no effect and 100 is complete control
[4] = 500 g ai/ha, 0 to 100 scale, 0 no effect, 100 complete control
[5] = 0 to 100 scale, 0 no effect, 100 complete control
[6] = 16 g ai/ha, postemergence, visual rating, scale 0 to 100 (0 no effect, 100 complete control), 13 to 15 days
[7] = 1000 g ai/ha, 0 to 100 scale, 0 no effect, 100 complete control
[8] = 500 g ai/ha, 0 to 100 scale where 0 is no effect and 100 is complete control
[9] = 8 g ai/ha, 0 is no effect, 100 is complete control
[10] = 16 g ai/ha, 0 is no effect, 100 is complete control
[11] = 8 g ai/ha, postemergence, 0 is no effect, 100 is complete control
[12] = 16 g ai/ha, postemergence, 0 is no effect, 100 is complete control

Compound | Plant response rating (0 to 100), Soybean (soybean; 125 g ai/ha) | Plant response rating (0 to 100), Soybean (soybean; 250 g ai/ha) | Plant response rating, Soybean (soybean; 31 g ai/ha, 13 to 15 days) | Plant response rating, Soybean (soybean; 62 g ai/ha) | Plant response rating (0 to 100), Blackgrass (blackgrass; 125 g ai/ha, postemergence) | Plant response rating (0 to 100), Blackgrass (blackgrass; 250 g ai/ha, postemergence) | Plant response rating, Blackgrass (blackgrass; [1]) | Plant response rating, Blackgrass (blackgrass; [2]) | Plant response rating, Wheat (wheat; [3]) | Plant response rating (0 to 100), Oilseed Rape (oilseed rape; 125 g ai/ha) | Plant response rating (0 to 100), Oilseed Rape (oilseed rape; 250 g ai/ha) | Plant response rating, Oilseed Rape (oilseed rape; 31 g ai/ha, 13 to 15 days) | Plant response rating, Oilseed Rape (oilseed rape; 62 g ai/ha) | Plant response rating, Rice (rice) | Plant response rating (0 to 100), Ragweed (ragweed; 125 g ai/ha) | Plant response rating, Ragweed (ragweed; 31 g ai/ha, 13 to 15 days) | Plant response rating, Ragweed (ragweed; 62 g ai/ha) | Plant response rating (0 to 100), Foxtail, Giant (giant foxtail; 125 g ai/ha, postemergence) | Plant response rating, Foxtail, Giant (giant foxtail; [1]) | Plant response rating, Foxtail, Giant (giant foxtail; [2]) | other results
N#Cc1cccc(Oc2ncc(F)cn2)c1-n1cc(Br)cn1 [Compound 62] | 95 | 95 | 45 | 85 | 30 | 50 | 0 | 5 | 20 | 60 | 75 | 20 | 20 | 0 | 50 | 40 | 40 | 20 | 5 | 10 | Plant response rating, Wheat (wheat; [4]): 100; Plant response rating (0 to 100), Ragweed (ragweed; 250 g ai/ha): 50; Plant response rating (0 to 100), Foxtail, Giant (giant foxtail; 250 g ai/ha, postemergence): 25; Plant response rating, Barnyardgrass (barnyardgrass; [3]): 60; Barnyardgrass plant response rating (barnyardgrass; [5]): 100; Plant response rating, Morningglory (morningglory; [3]): 90; Plant response rating, Morningglory (morningglory; [4]): 100
Clc1cnc(Oc2cccc(Br)c2-n2cc(Br)cn2)nc1 [Compound 65] | 85 | – | 40 | 60 | 15 | – | 10 | 40 | – | 90 | – | 25 | 60 | 0 | 35 | 5 | 25 | 10 | 10 | 10 | Blackgrass plant response rating (blackgrass; [6]): 0; Plant response rating, Wheat (wheat; [7]): 60; Foxtail, Giant plant response rating (giant foxtail; [6]): 5; Plant response rating, Barnyardgrass (barnyardgrass; [7]): 100; Plant response rating, Morningglory (morningglory; [7]): 100
N#Cc1cccc(Oc2ncc(Cl)cn2)c1-n1cnc(Br)c1 [Compound 74] | 75 | 80 | 40 | 65 | 0 | 5 | 0 | 0 | 0 | 40 | 65 | 35 | 40 | 0 | 40 | 40 | 40 | 10 | 5 | 5 | Plant response rating, Wheat (wheat; [8]): 50; Plant response rating (0 to 100), Ragweed (ragweed; 250 g ai/ha): 60; Plant response rating (0 to 100), Foxtail, Giant (giant foxtail; 250 g ai/ha, postemergence): 20; Plant response rating, Barnyardgrass (barnyardgrass; [3]): 70; Barnyardgrass plant response rating (barnyardgrass; [5]): 100; Plant response rating, Morningglory (morningglory; [3]): 80; Plant response rating, Morningglory (morningglory; [8]): 100
CC(=NO)c1cn(-c2c(Br)cccc2Oc2ncc(Cl)cn2)nn1 [Compound 115] | – | – | – | – | – | – | 5 | – | – | – | – | – | – | 0 | – | – | – | – | – | – | Plant response rating (0 to 100), Soybean (soybean; [9]): 5; Plant response rating (0 to 100), Soybean (soybean; [10]): 10; Plant response rating (0 to 100), Blackgrass (blackgrass; 4 g ai/ha, postemergence, 0 is no effect, 100 is complete control): 0; Plant response rating (0 to 100), Blackgrass (blackgrass; [11]): 0; Plant response rating (0 to 100), Blackgrass (blackgrass; [12]): 0; Plant response rating, Wheat (wheat; [7]): 90; Plant response rating (0 to 100), Oilseed Rape (oilseed rape; [9]): 0; Plant response rating (0 to 100), Oilseed Rape (oilseed rape; [10]): 0; Plant response rating (0 to 100), Ragweed (ragweed; [9]): 5; Plant response rating (0 to 100), Ragweed (ragweed; [10]): 5; Plant response rating (0 to 100), Foxtail, Giant (giant foxtail; [11]): 5; Plant response rating (0 to 100), Foxtail, Giant (giant foxtail; [12]): 5; Plant response rating, Barnyardgrass (barnyardgrass; [7]): 100; Plant response rating, Morningglory (morningglory; [7]): 100
